Drawing on ChEMBL document CHEMBL5338820, “Discovery and Design of Novel Cyclic Peptides as Specific Inhibitors Targeting CCN2 and Disrupting CCN2/EGFR Interaction for Kidney Fibrosis Treatment” (J Med Chem, 2023), this text covers inhibition, Activity and Kd for 2 compounds.

One may read the inhibition as the relative decrease from the control value, in per cent. As a reminder, the Kd is the concentration at which binding is half-saturated.

Data set [1] has as its target T1, CCN family member 2 (Homo sapiens) (UniProt P29279).
T1 sequence (whole entry): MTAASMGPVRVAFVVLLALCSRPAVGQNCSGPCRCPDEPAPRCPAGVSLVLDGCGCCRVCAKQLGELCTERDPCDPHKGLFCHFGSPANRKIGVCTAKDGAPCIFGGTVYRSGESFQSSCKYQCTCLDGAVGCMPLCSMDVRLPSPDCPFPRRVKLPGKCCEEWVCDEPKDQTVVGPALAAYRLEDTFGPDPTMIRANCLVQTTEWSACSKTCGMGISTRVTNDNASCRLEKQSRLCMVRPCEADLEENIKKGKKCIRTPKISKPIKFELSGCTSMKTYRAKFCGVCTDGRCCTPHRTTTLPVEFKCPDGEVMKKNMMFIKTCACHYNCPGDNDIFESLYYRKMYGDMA
Put plainly: Inhibition of recombinant human CCN2 FL domain expressed in human […] cells assessed as reduction in COL1A1 synthesis at 0.1 mg/ml incubated for 24 hrs by Western blotting assay. It counts as cell-based. A general note: Immunoblotting shows a protein as a band on a membrane.

The target in data set [2] is T2, CCN2-EGFR (Homo sapiens) (UniProt P00533+P29279). Put plainly: Inhibition of His-tagged full length human CCN2 CT domain/human Fc-tagged EGFR protein-protein interaction using TMB as chromogenic substrate at 0.1 mg/ml incubated for 140 mins by microplate reader assay relative to control.
T2 sequence (P00533 whole entry, looked up, one chain of several, the tested form may be a part): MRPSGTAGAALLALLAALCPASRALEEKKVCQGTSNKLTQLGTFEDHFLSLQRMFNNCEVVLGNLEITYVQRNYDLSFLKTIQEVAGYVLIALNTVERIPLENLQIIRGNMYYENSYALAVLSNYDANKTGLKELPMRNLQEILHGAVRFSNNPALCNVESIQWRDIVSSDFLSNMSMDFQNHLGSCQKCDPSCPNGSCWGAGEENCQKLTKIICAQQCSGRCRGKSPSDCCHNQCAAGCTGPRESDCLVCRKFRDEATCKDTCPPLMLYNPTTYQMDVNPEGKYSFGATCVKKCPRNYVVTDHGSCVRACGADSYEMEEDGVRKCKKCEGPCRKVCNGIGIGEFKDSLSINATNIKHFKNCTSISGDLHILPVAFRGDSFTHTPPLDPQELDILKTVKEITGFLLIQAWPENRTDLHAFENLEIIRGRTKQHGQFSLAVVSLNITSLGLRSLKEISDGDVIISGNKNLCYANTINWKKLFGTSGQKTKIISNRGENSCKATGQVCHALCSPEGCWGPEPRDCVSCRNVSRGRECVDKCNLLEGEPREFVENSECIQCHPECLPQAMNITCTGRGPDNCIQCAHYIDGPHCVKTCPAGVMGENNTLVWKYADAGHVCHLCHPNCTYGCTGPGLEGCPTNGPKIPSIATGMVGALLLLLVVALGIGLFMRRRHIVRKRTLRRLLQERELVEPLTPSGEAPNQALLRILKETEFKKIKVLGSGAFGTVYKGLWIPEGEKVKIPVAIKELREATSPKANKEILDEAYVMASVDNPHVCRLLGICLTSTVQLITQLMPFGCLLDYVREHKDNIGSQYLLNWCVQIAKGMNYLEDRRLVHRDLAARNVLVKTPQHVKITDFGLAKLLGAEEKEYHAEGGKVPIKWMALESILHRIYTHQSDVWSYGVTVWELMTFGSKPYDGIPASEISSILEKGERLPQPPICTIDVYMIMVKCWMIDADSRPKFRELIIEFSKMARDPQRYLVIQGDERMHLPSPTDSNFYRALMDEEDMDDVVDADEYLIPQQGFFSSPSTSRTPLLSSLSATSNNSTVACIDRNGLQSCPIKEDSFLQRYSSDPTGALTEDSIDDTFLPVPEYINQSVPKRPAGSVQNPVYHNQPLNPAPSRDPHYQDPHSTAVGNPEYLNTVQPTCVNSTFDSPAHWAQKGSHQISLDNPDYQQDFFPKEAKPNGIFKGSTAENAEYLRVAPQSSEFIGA
Data set [3] has as its target T1, CCN family member 2 (Homo sapiens). The data set is described as follows: Inhibition of recombinant human CCN2 FL domain expressed in human HK-1 cells assessed as reduction in fibronectin synthesis at 0.1 mg/ml incubated for 24 hrs by Western blotting assay. It counts as cell-based.
Data set [4] concerns the target T2, CCN2-EGFR (Homo sapiens). Put plainly: Inhibition of His-tagged full length human CCN2 FL domain/human Fc-tagged EGFR protein-protein interaction using TMB as chromogenic substrate at 0.1 mg/ml incubated for 140 mins by microplate reader assay relative to control.
The target in data set [5] is T1, CCN family member 2 (Homo sapiens). The data set is described as follows: Inhibition of recombinant human CCN2 CT domain expressed in human […] cells assessed as reduction in COL1A1 synthesis at 0.1 mg/ml incubated for 24 hrs by Western blotting assay. It counts as cell-based.
Data set [6] shares this target. The data set is described as follows: Inhibition of recombinant human CCN2 CT domain expressed in human […] cells assessed as reduction in fibronectin synthesis at 0.1 mg/ml incubated for 24 hrs by Western blotting assay. Format: cell-based.
Data set [7] concerns Mus musculus. The data set is described as follows: Antifibrotic activity against Unilateral ureteric obstruction ligation induced C57BL/6J mouse kidney fibrosis model assessed as downregulation of EGFR phosphorylation at 250 microg/kg,ip administrated for 14 days by Western blotting analysis. It counts as functional, organism-based. Particulars: dose 250.0 µg/kg, time 14.0 day.

For data set [8], the system named is Mus musculus. The data set is described as follows: Antifibrotic activity against Unilateral ureteric obstruction ligation induced C57BL/6J mouse kidney fibrosis model assessed as downregulation of STAT3 phosphorylation at 250 microg/kg,ip administrated for 14 days by Western blotting analysis. Particulars: dose 250.0 µg/kg, time 14.0 day. It counts as functional, organism-based.

Data set [9] deals with T2, CCN2-EGFR (Homo sapiens). Put plainly: Inhibition of His-tagged full length human CCN2 CT domain/human Fc-tagged EGFR protein-protein interaction using TMB as chromogenic substrate at 100 uM incubated for 140 mins by microplate reader assay relative to control.
Data set [10] in a line: Toxicity in Unilateral ureteric obstruction C57BL/6J mouse model assessed as change in food consumption at 250 microg/kg,ip administrated for 14 days. Particulars: in vivo, 0.25 mg/kg, 336 h, dose 250 µg/kg, time 14 day.
The nature of data set [11]: Toxicity in Unilateral ureteric obstruction C57BL/6J mouse model assessed as change in behaviour at 250 microg/kg,ip administrated for 14 days. Particulars: in vivo, 0.25 mg/kg, 336 h, dose 250 µg/kg, time 14 day.
The subject of data set [12] is Mus musculus. The data set is described as follows: Antifibrotic activity against Unilateral ureteric obstruction ligation induced C57BL/6J mouse kidney fibrosis model assessed as downregulation of COL1A1 synthesis at 250 microg/kg,ip administrated for 14 days by Western blotting analysis. Format: functional, organism-based. Particulars: dose 250.0 µg/kg, time 14.0 day.

Data set [13] concerns Mus musculus. Put plainly: Antifibrotic activity against Unilateral ureteric obstruction ligation induced C57BL/6J mouse kidney fibrosis model assessed as reduction of inflammatory infiltration at 250 microg/kg,ip administrated for 14 days by hematoxylin and eosin staining based analysis. Format: functional, organism-based. Particulars: dose 250.0 µg/kg, time 14.0 day.
The test system of data set [14] is Mus musculus. The data set is described as follows: Antifibrotic activity against Unilateral ureteric obstruction ligation induced C57BL/6J mouse kidney fibrosis model assessed as reduction of collagen formation at 250 microg/kg,ip administrated for 14 days by […] staining based analysis. It counts as functional, organism-based. Particulars: dose 250.0 µg/kg, time 14.0 day.

Data set [15] is described as follows: Toxicity in Unilateral ureteric obstruction C57BL/6J mouse model assessed as change in hair color at 250 microg/kg,ip administrated for 14 days. Particulars: in vivo, 0.25 mg/kg, 336 h, dose 250 µg/kg, time 14 day.
The target of the next data set is T3, CCN family member 2 (Homo sapiens, UniProt P29279).
T3 sequence (P29279 whole entry): T1 sequence (whole entry)
The data set is described as follows: Binding affinity to His-tagged full length human CCN2 CT domain assessed as dissociation constant by isothermal titration calorimetry assay. For orientation: ITC needs no label: the signal is the heat of the interaction.

Data set [16] deals with T1, CCN family member 2 (Homo sapiens). Put plainly: Inhibition of recombinant human CCN2 CT domain expressed in human […] cells assessed as reduction in COL1A1 synthesis at 100 uM incubated for 24 hrs by Western blotting assay. It counts as cell-based.
For data set [17] the target is unchanged. The data set is described as follows: Inhibition of recombinant human CCN2 CT domain expressed in human […] cells assessed as reduction in fibronectin synthesis at 100 uM incubated for 24 hrs by Western blotting assay. Format: cell-based.
The subject of data set [18] is Mus musculus. The data set is described as follows: Antifibrotic activity against Unilateral ureteric obstruction ligation induced C57BL/6J mouse kidney fibrosis model assessed as reduction of renal tubular injury at 250 microg/kg,ip administrated for 14 days by hematoxylin and eosin staining based analysis. Particulars: dose 250.0 µg/kg, time 14.0 day. Format: functional, organism-based.

The subject of data set [19] is Mus musculus. Put plainly: Antifibrotic activity against Unilateral ureteric obstruction ligation induced C57BL/6J mouse kidney fibrosis model assessed as downregulation of fibronectin synthesis at 250 microg/kg,ip administrated for 14 days by Western blotting analysis. Particulars: dose 250.0 µg/kg, time 14.0 day. It counts as functional, organism-based.
Data set [20] is described as follows: Toxicity in Unilateral ureteric obstruction C57BL/6J mouse model assessed as change in body weight at 250 microg/kg,ip administrated for 14 days. Particulars: in vivo, 0.25 mg/kg, 336 h, dose 250 µg/kg, time 14 day.
Data set [21] addresses T2, CCN2-EGFR (Homo sapiens). Put plainly: Inhibition of His-tagged full length human CCN2 FL domain/human Fc-tagged EGFR protein-protein interaction using TMB as chromogenic substrate at 100 uM incubated for 140 mins by microplate reader assay relative to control.
Data set [22] deals with T1, CCN family member 2 (Homo sapiens). Put plainly: Inhibition of recombinant human CCN2 FL domain expressed in human […] cells assessed as reduction in STAT3 phosphorylation at 100 uM incubated for 24 hrs by Western blotting assay. It counts as cell-based.

The structures appear in SMILES notation. Activity calls are given as the source filed them. No cut-off for these calls is given here. Peptide text beside a SMILES is read from it.

`CC(C)C[C@H](NC(=O)[C@@H](N)CC(C)C)C(=O)N[C@@H](C)C(=O)N[C@@H](CC(=O)O)C(=O)N[C@H](C(=O)N[C@H](C(=O)N[C@@H](Cc1c[nH]cn1)C(=O)N[C@@H](Cc1c[nH]cn1)C(=O)N[C@@H](CCCNC(=N)N)C(=O)N1CCC[C@H]1C(=O)N[C@@H](Cc1c[nH]c2ccccc12)C(=O)N[C@H](C(N)=O)[C@@H](C)O)[C@@H](C)O)[C@@H](C)O` (H-LLADTTHHRPWT-NH2): the inhibition result in [1], in data set [3], in data set [5] and in data set [6] was “Active” each time. In addition, the inhibition on CCN2-EGFR (Homo sapiens) [2] was 71.4%; on CCN2-EGFR (Homo sapiens) [4], 39.5%.

Turning to `C[C@@H](O)[C@H](N)C(=O)N[C@@H](CCCCN)C(=O)N[C@@H](Cc1c[nH]cn1)C(=O)N[C@@H](CCCNC(=N)N)C(=O)N1CCC[C@H]1C(=O)N[C@@H](Cc1c[nH]c2ccccc12)C(=O)N[C@H](C(N)=O)[C@@H](C)O` (H-TKHRPWT-NH2), the outcome in the data set on Mus musculus [7], in the data set with Mus musculus [8], in the data set with Mus musculus [12], in the data set on Mus musculus [13], in the data set with Mus musculus [14] and in the data set with Mus musculus [18] was Active. Further, the outcome with Mus musculus [19] was Active. The inhibition was 78.7% on CCN2-EGFR (Homo sapiens) [9] and 62.3% on CCN2-EGFR (Homo sapiens) [21]. Moreover, the Activity result in [10], in [11], in data set [15] and in [20] was “Non-Toxic” in each case. Also, on CCN family member 2, the Kd came to 3.9 µM. The inhibition result in data set [16], in [17] and in [22] was “Active” throughout.
